{"source": "patent US20210187014A1", "about": "(The Regents of the University of Colorado, a body corporate, priority 2018, published 2021)", "key": {"[1]": {"tested_on": "C. elegans smf-3/DMT1 mutant", "assay": "Growth of iron-deficient C. elegans smf-3/DMT1(-) mutant with iron chelator 2,2'-bipyridyl", "format": "in vivo", "description": "FIG. 26. […] All tests were done on a smf-3/DMT1(-) mutant strain in a culture media where an iron chelator (2,2′-bipyridyl) was added to reduce the environmental iron level (FIG. 26A). […] This growth delay was rescued by supplementation with Ent, scored as the percentage of the population at the indicated growth stage. […] The entP,fepA: E. coli mutant cannot synthesize or utilize Enterobactin.\nSMF-3/DMT1 is a conserved divalent metal transporter that transports iron into intestinal cells. The smf-3/DMT1 mutant has been established as an iron deficiency model in C. elegans. These mutants have defective iron uptake that results in iron deficiency (Romney et al 2011) and delayed growth under iron-poor growth conditions created by addition of an iron chelator (2,2′-bipyridyl) to the culture media (Raj an et al 2019).\nTo determine if the Enterobactin supplementation was benefiting the worm directly or benefiting the worm through an E. coli-dependent mechanism, the test was repeated using an E. coli double mutant that cannot synthesize or utilize Ent (entP,fepk)."}, "[2]": {"assay": "Stability by NGAL fluorescence assay", "format": "physicochemical", "conditions": "same concentration and buffers, room temp, light", "description": "FIG. 25. […] Degradation is indicated by increased absorbance. […] Degradation is indicated by increased relative fluorescence. […] For all tests, dilutions were kept at room temp and exposed to light. Error is standard deviation of the mean."}, "MEL cells": {"tested_on": "MEL cells", "assay": "Erythroid differentiation of MEL cells (color change of cell pellets)", "format": "cell-based, murine", "conditions": "equimolar supplementation", "description": "FIG. 27. Ferric Enterobactin supplementation benefits differentiation of erythroid progenitor cells (MEL) to red blood cells. (FIG. 27A) MEL cells were grown with the indicated treatments. Cell pellets are shown. (FIG. 27B) Quantification of MEL color change presented as the average intensity of each cell pellet, normalized to the intensity of the control. Error bars are the standard deviation of three technical replicates.\nMEL cells are murine erythroid progenitor cells that are arrested at the proerythroblast stage. In the laboratory, these cells are induced to undergo erythroid differentiation to red blood cells by addition of various chemicals (e.g. 2% DMSO) (Friend, 1971). Erythroid differentiation is an iron-dependent process that results in a color change in the differentiated cells. The present inventors tested if addition of Fe-Ent would positively impact the differentiation of wild-type MEL cells to red blood cells."}, "C. elegans [3]": {"tested_on": "C. elegans", "assay": "C. elegans larval growth assay: heat-killed E. coli plus trace live E. coli, worm volume", "format": "in vivo", "conditions": "for worm growth with dietary supplementation: worms fed heat-killed E. coli plus live entA- or entF- mutant E. coli (Ent-deficient food)", "description": "In one embodiment of the inventive technology, the present inventors created a unique assay to facilitate the identification of microbial metabolites that benefit growth and development of host animals. […] This unique feeding condition was used to search for E. coli mutants that fail to support normal worm growth, potentially due to their inability to provide specific metabolites to benefit host animals.\nE. coli Keio collection screen. Preparation of heat-killed (HK) OP50 plates followed the procedure described previously (Qi et al., 2017). Standard overnight culture of E. coli OP50 grown in LB broth was concentrated to 1/10 vol and was then heat-killed in a 75° C. water bath for 90 min. The 150 µl of the HK-OP50 was spread onto one side of NGM plate. For preparation of bacterial mutant assay plates, E. coli Keio (Baba et al., 2006) mutants were grown overnight at 37° C. in LB medium with […] kanamycin. 0.2 uL of the bacterial culture (OD600) were seeded to the other side of HK OP50 plate. About 300 synchronized L1 worms were added to the screen plate, and cultured at 20° C., then scored for worm size at day 3 and day 4. The entire library was used for the primary screen; each bacterial mutant was screened once. For the secondary screen, 200 candidate mutants were screened (3 replicates) to confirm the slow growth phenotype.\nChemical supplementation of culture plates. For chemical supplementation, each chemical was dissolved in water or DMSO to generate a stock. The stock solution was added to HK OP50 and then spotted onto NGM plates. […] For CaEDTA supplementation (Kiang et al., 2014), 50 ul of CaEDTA (50 ug/ul) was spread onto the center of the NGM plates seeded with OP50, then different volume of the FeCl3[175 ug/ul] […] Bacterial growth analyses. Overnight cultures were diluted to a final OD600=0.01 in 200 μL of NGM liquid medium. Bacteria were grown in 96-well plates with shaking in a Synergy2 plate reader (BioTek) at 37° C. for 17 h. The OD600 was recorded at 20 min intervals.\nAnalysis of larval growth by measuring worm size. Synchronized L1 worms were seeded on the indicated NGM plate and grew to the indicated times. Photos were taken and worms volume in each photo were measured by WormSizer software (Moore et al., 2013)."}, "C. elegans [4]": {"tested_on": "C. elegans", "assay": "Iron level in live worms by calcein-AM staining (and pftn-2::GFP reporter)", "format": "in vivo", "protocol": "The present inventors employed the commonly used fluorescent cell-permeable dye, calcein AM, of which emission is quenched by iron binding, and applied it to live worms as previously described to estimate the overall iron level in the host.\nLive imaging of iron in worms was done as previously described (James et al., 2015). Briefly, worms were collected at different culture conditions, then co-cultured in M9 with 0.05 ug/ML calcein-AM (Invitrogen) for 1 h, then washed 3 times in 1 ml M9. Samples were then mounted for fluorescence microscopy.\nFor calcein-AM staining, the original images taken with GFP channel were used to measure the intensity. The value of staining intensity was determined by subtracting the background intensity from the calcein-AM stained intestine."}, "C. elegans [5]": {"tested_on": "C. elegans", "assay": "Siderophore toxicity test: worm growth and mitochondrial morphology (mtGFP)", "format": "in vivo", "conditions": "for defects in growth or mitochondrial morphology: solid medium, worms fed wild-type E. coli", "description": "FIG. 8. Bacterial enterobactin promotes C. elegans development. […] (8E) The entA- and entF-mutant E. coli strains colonized the host gut as efficiently as the parental wild-type strain. (FIG. 8F) Cartoon diagram of feeding condition, microscope images and bar graph showing that neither pyoverdine nor ferrichrome caused obvious growth defects in worms fed heat-killed food plus wild-type, live E. coli. (FIG. 8G) Fluorescence microscopy of worms containing mtGFP under the same feeding condition as in (FIG. 8F). […] “n” =number of worms scored. Data are represented as mean±SEM. ***P<0.0001."}}, "note": "Square brackets hold non-standard residues; d marks the D form. Peptide text beside a SMILES is read from it. Orn(N5-OH,N5-Ac) = CC(=O)N(O)CCC[C@H](N)C(=O)O", "data": [{"compound": "O=C(N[C@H]1COC(=O)[C@@H](NC(=O)c2cccc([O-])c2[O-])COC(=O)[C@@H](NC(=O)c2cccc([O-])c2[O-])COC1=O)c1cccc([O-])c1[O-].[Fe+3]", "note": "[Fe-Ent, ferric enterobactin]", "values": [{"measurement": "growth of smf-3(-) mutants", "setting": "[1]; E. coli double mutant that cannot synthesize or utilize Ent", "value": "independent of E. coli"}, {"measurement": "growth of smf-3(-) mutants", "setting": "[1]; iron chelator 2,2'-bipyridyl in media", "value": "faster and to a greater extent than observed for Enterobactin or FeCl3 supplementation alone"}, {"measurement": "stability of Ent versus Fe-Ent", "setting": "[2]", "value": "more stable than Ent alone"}, {"measurement": "MEL differentiation to red blood cells", "setting": "MEL cells", "value": "increase in MEL differentiation, and this increase was better than supplementation with equimolar FeCl3 alone"}]}, {"compound": "[Cl][Fe]([Cl])[Cl]", "note": "[FeCl3, ferric chloride, reference compound]", "values": [{"measurement": "worm growth", "setting": "C. elegans [3]; ferric chloride added to live wild-type E. coli, with heat-killed E. coli", "value": "worm growth defect"}, {"measurement": "worm growth with dietary supplementation", "setting": "C. elegans [3]", "value": "neither suppressed the growth defect"}, {"measurement": "cellular iron level", "setting": "C. elegans [4]; animals fed Ent-deficient food", "value": "nor raised cellular iron level"}, {"measurement": "iron level and growth rate defects", "setting": "C. elegans [4]; iron-deficient condition, worms treated with CaEDTA", "value": "both defects were suppressed"}]}, {"compound": "hemin", "values": [{"measurement": "worm growth with dietary supplementation", "setting": "C. elegans [3]", "value": "did not impact animal growth"}]}, {"compound": "pyoverdine", "values": [{"measurement": "worm growth with dietary supplementation", "setting": "C. elegans [3]", "value": "failed to generate a similar impact on worm growth"}, {"measurement": "mitochondrial morphology (mtGFP)", "setting": "C. elegans [5]; liquid culture", "value": "toxic to worms as it damages host mitochondria"}, {"measurement": "defects in growth or mitochondrial morphology", "setting": "C. elegans [5]", "value": "no obvious defects"}]}, {"compound": "CC(=O)N([O-])CCC[C@@H]1NC(=O)CNC(=O)CNC(=O)CNC(=O)[C@H](CCCN([O-])C(C)=O)NC(=O)[C@H](CCCN([O-])C(C)=O)NC1=O.[Fe+3]", "note": "[ferrichrome] (cyclo(GGG[Orn(N5-OH,N5-Ac)][Orn(N5-OH,N5-Ac)][Orn(N5-OH,N5-Ac)]))", "values": [{"measurement": "worm growth with dietary supplementation", "setting": "C. elegans [3]", "value": "failed to generate a similar impact on worm growth"}, {"measurement": "defects in growth or mitochondrial morphology", "setting": "C. elegans [5]", "value": "no obvious defects"}]}, {"compound": "O=C(O)c1cccc(O)c1O", "note": "[2,3-DHBA, 2,3-dihydroxybenzoic acid]", "values": [{"measurement": "worm growth with dietary supplementation", "setting": "C. elegans [3]", "value": "rescued worm growth on entA- but not entF-E. coli"}]}]}
